Reference: US20180362487A1, “STEREOISOMER OF BROMADIOLONE, COMPOSITION AND RODENTICIDAL BAIT COMPRISING SAME, AND PROCESS FOR CONTROLLING TARGET RODENT PESTS” (priority 2015, published 2018)

Type: in vivo, "Sprague-Dawley" SD rats
Settings: per os tube feeding, about 13 mg bromadiolone per kg (56% D1,2 / 44% D3,4), liver on D1, D3, D7, male and female rats, FIG. 2
Method: Separation of the configurational stereoisomers of bromadiolone is performed by high-pressure liquid chromatography (HPLC) on a LUX® Cellulose-1 chiral column (Phenomenex, Le Pecq, France) containing a chiral stationary phase constituted of particles of cellulose tris(3,5-dimethylphenyl carbamate), said particles having a mean size of 3 μm and having a mean pore size of 1000 Å. A mixture formed from acetonitrile (A) and water comprising 0.1% by volume of formic acid (B), with an A/B volume ratio of 80/20 and with a flow rate of 0.25 mL/minute in the chromatography column, is used as mobile phase. The concentration of the composition to be analysed is 1 μg of bromadiolone per millilitre of acetonitrile and the volume injected onto the column is 1 μL. Detection is performed by tandem mass spectrometry (MS/MS) in negative electrospray ionization (ESI) mode. The temperature of the nebulizer gas is 350° C. and its flow rate is 8 L/minute. The pressure of the nebulizer gas is brought to 2700 hPa. In particular, the MRM (“Multiple Reaction Monitoring”) transitions m/z 525.1→250.1 and m/z 525.1→181, corresponding to bromadiolone, are detected.
About 0.525 g (±0.025 g) of rat liver is weighed out accurately and placed in a 50 mL polypropylene tube. 10 mL of acetone are added and the suspension is homogenized using an Ultra-Turrax® homogenizer/disperser for a time of about 30 seconds. […]

SMILES	persistence in the liver of the rats (hepatic concentration of the diastereoisomers)
O=c1oc2ccccc2c(O)c1C(CC(O)c1ccc(-c2ccc(Br)cc2)cc1)c1ccccc1 (single isomer, unassigned) [diastereoisomer D1,2]	longer persistence in the liver of the rats than the persistence of said diastereoisomer D3,4
O=c1oc2ccccc2c(O)c1C(CC(O)c1ccc(-c2ccc(Br)cc2)cc1)c1ccccc1 (single isomer, unassigned) [diastereoisomer D3,4]	less persistent in the liver of target rodents
